The test system of experiment [1] is 2G12 antibody. As to the kind of experiment: Carbohydrate microarray analysis, microtiter-based, Scatchard plot (Kd). The experiment is classed as binding, human. To be noted: microtiter plate array. As to the method: Carbohydrate microarray analysis. Ninety-six well NHS-coated microtiter plates (NoAb Biodiscoveries) were treated with 200 µL of a 1 mM methanolic solution of the amino-functionalized disulfide and alkyne containing linker (scheme V) containing 5 % diisopropylethylamine (DIEA) and incubated overnight at 4°C. The microtiter plate was then washed with 2 x 200 µL methanol and 2 x 200 µL water. Next, 200 µL solutions of azido-functionalized oligomannose derivatives 21-25 at varying concentrations from 0 to 500 µM in 5 % DIEA / methanol were introduced. A sprinkle of copper (I) iodide was added and the contents were allowed to react overnight at 4°C. The next day, the contents were removed and the plates were washed with 2 x 200 µL methanol and 2 x 200 µL water. The plates were then blocked with 0.1 % Tween20 solution in HEPES buffer pH 7.5 at 4 °C for 1 hour and then washed with 3 x 200 µL HEPES buffer. Next, 200 µL of a 1 µg/mL solution of 2G12 antibody in 0.1 % Tween20 / PBS buffer was added to the wells for a 1 hour incubation at 4 °C and then washed with 2 x 200 µL PBS buffer. At this point, 200 µL of FITC-tagged goat anti-human IgG antibody (10 µg/mL in PBS, Cal Biochem) was added for 1 hour at 4 °C, and the wells were then washed with 2 x 200 µL PBS buffer. Detection of the FITC-tagged secondary antibody was performed in 200 µL water using a fluorescence plate reader. The resulting data yielded the oligomannose-2G12 binding isotherms and Scatchard plot analysis was implemented in the determination of dissociation constants. Adams et al. (2004) Chem. Biol. 11: 875-81.
Overall, many of the oligomannose derivatives can compete for binding of Man9GlcNAc2, and, therefore, may serve as building blocks for potential immunogens to elicit 2G12-like antibodies. Carbohydrate Microarray Analysis. Previous studies by the inventors using covalent microtiter plates with a panel of carbohydrate epitopes for interaction with 2G12 involved converting the amine-containing oligomannoses 4, 5, 7, 8 and 9 to the corresponding azide derivatives 21, 22, 23, 24 and 25. These derivatives were then covalently attached to a microplate-immobilized cleavable linker via the Cu (I)-catalyzed 1,3-dipolar cycloaddition reaction (FIG. 11B). Kd values for the interaction of 2G12 with oligomannoses 4, 5, 7, 8, 9 (Table 9) were determined using a microtiter-based assay with detection via a fluorescent secondary antibody (see Bryan et al.(2004) J. Am. Chem. Soc. 126, 8640-41). Table 9: The Kd values of oligomannoses 1 and 4, 5, 7, 8, 9 binding to 2G12, as determined by carbohydrate microarray analysis.

The test system of experiment [2] is interaction between 2G12 and gp120. As to the kind of experiment: Solution phase ELISA: oligomannose inhibition of 2G12 binding to gp120. Also noted: species or system HIV-1. The following applies: oligomannose at 0.5 mM. As to the method: Enzyme-linked immunosorbent assay. Microtiter plate wells (flat bottom, Costar type 3690; Corning Inc.) were coated with 50 ng/well gp120JR-CSF overnight at 4°C. All subsequent steps were performed at room temperature. The wells were then washed four times with PBS/0.05% (vol/vol) Tween20 (Sigma) using a microplate washer (SkanWash 400, Molecular Devices) prior to blocking for 1 hr with 3% (mass/vol) BSA. IgG 2G12, diluted to 0.5 µg/mL (25 ng/well) with 1% (mass/vol) BSA/0.02% (vol/vol) Tween20/PBS (PBS-BT), was then added for 2 hrs to the antigen-coated wells in the presence of serially-diluted oligomannoses starting at 2mM. Unbound antibody was removed by washing four times, as described above. Bound 2G12 was detected with an alkaline phosphatase-conjugated goat anti-human IgG F(ab')2 antibody (Pierce) diluted 1:1000 in PBS-BT. After 1hr, the wells were washed four times and bound antibody was visualized with p-nitrophenol phosphate substrate (Sigma) and monitored at 405 nm.
Binding. Man9GlcNAc2 1 and deprotected oligomannoses 2-6 and 7-9 (see FIG. 17) were evaluated for their ability to inhibit the interaction between 2G12 and gp120 in a solution phase enzyme-linked immunosorbent assay (ELISA). […]
A general note: An ELISA detects its analyte on a solid surface through an enzyme-linked reagent.

SMILES strings stand for the structures.

Consider `NCCCCCO[C@H]1O[C@H](CO[C@H]2O[C@H](CO)[C@@H](O)[C@H](O)[C@@H]2O[C@H]2O[C@H](CO)[C@@H](O)[C@H](O)[C@@H]2O)[C@@H](O)[C@H](O[C@H]2O[C@H](CO)[C@@H](O)[C@H](O)[C@@H]2O[C@H]2O[C@H](CO)[C@@H](O)[C@H](O)[C@@H]2O)[C@@H]1O` [Oligomannose 5], for which the “affinity for 2G12 antibodies (in words)” value in experiment [1] is listed as “greatest affinity”. In addition, the “inhibition (%) of 2G12 binding to gp120” value in experiment [2] came out at 37.7%.
